# Test results taken from patent US20210253518A1, “KINASE INHIBITOR” (NISSAN CHEMICAL CORPORATION, priority 2018, published 2021).
# Legend:
# [1] = tested on: YAP protein; test: Imaging analysis of nuclear translocation in SKOV3 cells; format: cell-based, human; conditions: 10 μM, 4 hr, ratio of fluorescence intensity nucleus/cytoplasm, no addition 6.15
# Description: (§1) Compounds k-1:B-1, k-1:H-1, and k-1:J-1 were evaluated for nuclear translocation of YAP protein and TAZ protein. For the nuclear translocation, imaging analysis was performed using the human ovarian cancer cell line SKOV3 (manufactured by DS Pharma Biomedical Co., Ltd) and OperettaCLS (manufactured by PerkinElmer) described below. The compounds were added such that the final concentration of the test concentration of k-1:B-1, k-1:H-1, and k-1:J-1 was 10 μM.
# (§2) Human ovarian cancer cell line SKOV3 cultured according to the protocol recommended by DS Pharma Biomedical Co., Ltd. was seeded on a 96-well plate (manufactured by PerkinElmer, CellCarrier-Ultra) at 15,000 cells/90 μL/well on the cycloolefin bottom surface, and cultured in a CO2 incubator (37° C., 5% CO2) for 1 day. After culturing, 10 μL of k-1:B-1, k-1:H-1, and k-1:J-1 solutions having a concentration of 100 μM and dissolved in DMSO was added. The cells were further cultured in a CO2 incubator at 37° C. for 4 hr. The medium was exchanged with 4% para-formaldehyde, and the cells were fixed by allowing to stand at room temperature for 10 min. The fixed cells were subjected to immunostaining with AlexaFluor® 647-labeled YAP antibody (manufactured by Cell Signaling Technology), anti-mouse TAZ (D-8) antibody (manufactured by SantaCruz), AlexaFluor® 555-labeled anti-mouse IgG antibody (manufactured by Thermo Fisher Scientific), according to the recommended protocol produced by Cell Signaling Technology, and the cell nucleus was further stained with 10 μg/mL Hoechst33342 solution.
# (§3) Nine fields of view were imaged per well using a 20× objective lens of Operatta CLS. The cell nucleus region and the cytoplasm region were identified from the obtained fluorescence images by using the analysis software Harmony (manufactured by PerkinElmer), and AlexaFluor® 647 fluorescence intensity per unit area and the AlexaFluor® 555 fluorescence intensity per unit area in each region were extracted. The nuclear translocation was evaluated by calculating the ratio of the fluorescence intensity of the cell nucleus region to the fluorescence intensity of the cytoplasmic region from the extracted values. The value becomes greater than 1 as the YAP protein and TAZ protein transfer into the cell nucleus, and less than 1 when localized in the cytoplasm.
# (§4) The specific compound used in the present invention was evaluated for the nuclear translocation of YAP protein and TAZ protein. For the nuclear translocation, imaging analysis was performed using the human ovarian cancer cell line SKOV3 (DS Pharma Biomedical Co., Ltd) and OperettaCLS (PerkinElmer) described below. The specific compound was added such that the final concentration of the test concentration of the compound used in the present invention was 10 μM.
# (§5) Human ovarian cancer cell line SKOV3 cultured according to the protocol recommended by DS Pharma Biomedical Co., Ltd. was seeded on a 96-well plate (PerkinElmer, CellCarrier-Ultra) at 15,000 cells/90 μL/well on the cycloolefin bottom surface, and cultured in a CO2 incubator (37° C., 5% CO2) for 1 day. After culturing, a solution of the specific compound used in the present invention dissolved in DMSO was added. The cells were further cultured in a CO2 incubator at 37° C. for 4 hr, the medium was exchanged with 4% para-formaldehyde, and the cells were fixed by allowing to stand at room temperature for 10 min. The fixed cells were subjected to immunostaining with AlexaFluor® 647-labeled YAP antibody (Cell Signaling Technology), anti-mouse TAZ (D-8) antibody (SantaCruz), AlexaFluor® 555-labeled anti-mouse IgG antibody (Thermo Fisher Scientific), according to the recommended protocol produced by Cell Signaling Technology, and the cell nucleus was further stained with 10 μg/mL Hoechst33342 solution.
# (§6) Nine fields of view were imaged per well using a 20× objective lens of Operatta CLS. […]
# [2] = tested on: TAZ protein; test: as above; format: cell-based, human; conditions: 10 μM, 4 hr, ratio of fluorescence intensity nucleus/cytoplasm, no addition 6.98
# Description: as §1, §2, §3, §4, §5, §6
SMILES,YAP nuclear translocation rate [1],TAZ nuclear translocation rate [2]
CC/C(=N\NC(=O)NCc1cccc(O)c1)c1ccc(O)c(C)c1O [k-1:J-1],7.92,9.14
CCC(=NNC(=O)CNc1ccccc1)c1ccc(O)c(C)c1O [k-1:H-1],7.60,8.84
CC/C(=N\NC(=O)C(C)Nc1ccccc1)c1ccc(O)c(C)c1O (stereo not drawn) [k-1:B-1],6.98,7.93
